Laboratory results taken from patent US20150004261A1, “Rhizoma Arisaematis Extracts and Uses Thereof for Wound-Healing Effects” (THE HONG KONG UNIVERSITY OF SCIENCE AND TECHNOLOGY, priority 2011, published 2015).

Tested on: adult human keratinocytes
Test: In-vitro scratch wound-healing assay
Type: cell-based
Conditions: for closure of in vitro scratch wound gap: day 4, Example 9, FIG. 8B
Description: Human neonatal or adult keratinocytes late population doubling time (PD≧15) were trypsinized and seeded onto 6-well tissue culture plates (Falcon) at a density of 3×10^6 cells/well in HKGS (Cascade Biologics) and EpiLife (Cascade Biologics). After an overnight incubation in a 5% CO2 and 37° C. chamber, a bisecting scratch was made with a sterile p1000 micropipette tip and the cells were washed with PBS twice, and then replaced with the basal medium without the supplement for the duration of the assay.
Total extract, fractions and compounds of Rhizoma arisaematis were diluted in the basal medium without the supplement and added to the wells. EGF (Sigma) at 50 ng/mL was used as positive control, and DMSO (0.1%) was used as a vehicle control.
For each scratch, two consecutive fields were selected using the following criteria: relatively little cell debris within the scratch; even scratch, with straight edges; both edges visible under a single field using the 10× objective; fields not too close to either end of the scratch. The pictures were taken from day 1 for five consecutive days. The medium and the extracts were replenished daily for the duration of the assay.
To examine the efficacy of the herb Rhizoma arisaematis (RA) in in vitro closure of scratch wounds, human keratinocytes were incubated with the crude extract (RA-T) or different fractions of RA (100 μg/mL).
To examine the efficacy of the WA sub-fractions of RA in closing in vitro scratch wounds, RA-WA1 and RA-WA2 (1 μg/mL and 10 μg/mL) were tested using human keratinocytes. The scratch assay was performed using the procedures as described in Example 1. RA-WA1 and RA-WA2 at 1 μg/mL and 10 μg/mL were evaluated for their ability to close in vitro wound gap.
To examine the wound-healing effects, 3-O-(9,12-octadecadienoyl)-glyceryl-β-D-galactopyranoside (G192-C07) isolated from the BU fraction of RA (FIG. 8A) was incubated with human keratinocytes. The scratch assay was performed as described in Examples 1 and 5. G192-C07 at 1, 3, 10, and 30 μg/mL were evaluated for their ability to close in vitro wound gap. Epidermal growth factor (EGF, 10 ng/mL) and 0.1% DMSO were used as a positive and a vehicle control, respectively. Photographs of the wounds were taken immediately after the scratch and on day 4.

| Molecule | closure of in vitro scratch wound gap (1 μM) | closure of in vitro scratch wound gap (3 μM) | closure of in vitro scratch wound gap (10 μM) | closure of in vitro scratch wound gap (30 μM) | closure of in vitro scratch wound gap (positive control, 10 ng/mL) | closure of in vitro scratch wounds (positive control, 50 ng/mL, Example 1, FIG. 1) |
| --- | --- | --- | --- | --- | --- | --- |
| CCCCC/C=C\C/C=C\CCCCCCCC(=O)OCC(O)CO[C@@H]1O[C@H](CO)[C@H](O)[C@H](O)[C@H]1O (stereo partly drawn) [Compound G192-C07, 3-O-(9Z,12Z-octadecadienoyl)-glyceryl-β-D-galactopyranoside] | partly closed the wound gap | partly closed the wound gap | partly closed the wound gap | fully closed the wounds by day 4 |  |  |
| EGF: Epidermal growth factor (Sigma), positive control (NSDSECPLSHDGYCLHDGVCMYIEALDKYACNCVVGYIGERCQYRDLKWWELR; Epidermal growth factor; UniProt P01133 971-1023, looked up) [reference compound] |  |  |  |  | fully closed the wounds by day 4 | closed the wounds by day 2 |
